SMILES strings stand for the structures.

The experiment concerns APOE*3Leiden mice. Put plainly: Effects on lipid metabolism in vivo, APOE*3Leiden mice on Western-type diet. The settings on record: female heterozygous APOE*3Leiden mice, oral admix to Western-type diet, plasma after 4 hour fast, delta = level at t=0 minus level at t=3, doses 565 (Group 2), 497 (Group 3), 1 (Group 4) mg/kg bw/d. Here is the method: The invented compositions were tested in an animal model as described below.
Female heterozygous APOE*3Leiden mice was used, and housed during the experiment in macrolon cages (three or four mice per cage), in clean-conventional animal rooms (relative humidity 50-60%, temperature ˜21° C., light cycle 7 am to 7 pm). Individual animals were marked by ear punch-holes. Mice were supplied with food and acidified tap water ad libitum.
The mice received a semi-synthetic modified Western-type diet (WTD) as described by Nishina et al (J Lipid Res 1990; 31: 859), containing cholesterol (0.25% w/w, final concentration) and 15% cacaobutter.
All test compounds were administered orally as admix to the Western-type diet. The lyophilized diet chunks were stored in vacuum bags in the dark in an alarm-secured −20° C. room. The diets on the cages of the mice were changed twice a week.
APOE*3Leiden mice were put on a semi-synthetic Western-type diet (WTD, 15% cocoa butter, 40% sucrose and 0.25% cholesterol; all w/w). After a 4 weeks run-in period low-responder mice were removed from the study and the remaining mice were sub-divided into five groups of 10 mice each, matched for plasma cholesterol, triglycerides, free fatty acids and age (t=0) […]
After 3 weeks of treatment (t=3 weeks) blood samples were taken after 4 hour-fast period and plasma total cholesterol (TC), total triglycerides (TG) were measured. […]

`CC(C)OC(=O)C(C)(C)Oc1ccc(C(=O)c2ccc(Cl)cc2)cc1` [Group 4, Fenofibrate]: the “Delta cholesterol plasma levels (delta TC) after treatment period of 3 weeks, Mean (delta TC)” value is 4.71 and the “Delta triglyceride plasma levels (delta TG) after treatment period of 3 weeks, Mean (delta TG)” value was found to be 1.16.

For the origin of these results see patent publication US20100266681A1, “FATTY ACID ALCOHOLS” (priority 2006, published 2010).
